The text below walks through data of patent publication US20230120211A1, “HDAC Degrader” (University of Leicester, priority 2020, published 2023).

The target of test [1] is LSD1-CoREST-HDAC1 complex (Homo sapiens, UniProt Q13547). Briefly: fluorescent deacetylase assay with the LSD1-CoREST-HDAC1 complex (Example 2, FIG. 3A). It counts as biochemical. The settings on record: LSD1-CoREST-HDAC1 complex in vitro. As for the experimental part: The inventors evaluated their preliminary PROTACs in vitro using an established fluorescent deacetylase assay with the LSD1-CoREST-HDAC1 complex. This complex was used as an exemplary HDAC multiprotein complex to determine if such heterobifunctional molecules PROTACs 1-4 can still engage the HDAC enzyme in the context of an intact multiprotein complex.
(§1) Inhibition tests against LSD1-HDAC-CoREST complex were performed using a two-enzyme fluorescence-based HDAC assay. The inhibitor/PROTACs were dissolved at 50 mM in DMSO, then 1:2 serial dilutions performed using HDAC assay buffer (50 mM Tris pH 7.5, 150 mM NaCl) to afford range of concentrations.
(§2) The assays were performed in black 96-well plates with a reaction volume of 50 μL per well. All determinations were performed in triplicate. […] After an incubation of 20 minutes at 37° C. and 150 rpm, deacetylation was stopped by the addition of 50 μL of a developing solution containing trypsin (50 mM Tris pH 7.5, 100 mM NaCl, 10 mg/mL trypsin). […] HDAC Activity was calculated by subtracting the average blank fluorescence from the well fluorescence. Graphpad Prism software was utilised to determine IC50 values.

In test [2] the target is CoREST (Homo sapiens, UniProt Q13547). Description: HDAC inhibition assay, CoREST complex (Table 1, run under different conditions). The settings on record: Table 1 conditions (differ from FIG. 3). The format is biochemical. As for the experimental part: as §1, §2
Test [3] deals with NuRD (Homo sapiens, UniProt Q13547). Briefly: HDAC inhibition assay, NuRD complex (Table 1). The format is biochemical.
Test [4] deals with MiDAC (Homo sapiens, UniProt Q13547). Briefly: HDAC inhibition assay, MiDAC complex (Table 1). It counts as biochemical.
In test [5] the target is SMRT (Homo sapiens, UniProt O15379). Briefly: HDAC inhibition assay, SMRT complex (Table 1). The format is biochemical.
Test [6] has as its target T1, HDAC1 (Homo sapiens, UniProt Q13547).
T1 construct: endogenous in cells; host or cells: HCT116
Description: HDAC1 degradation in HCT116 cells, quantitative western blot. It counts as cell-based. The protocol: (§3) The compounds were screened at 0.1 μM, 1 μM and 10 μM in a HCT116 cell line. The maximum degradation observed irrespective of the concertation was recorded. The screening of the new compounds was done in 6-well plates, 5 mL media, with 400,000 cells per well to increase throughput.
(§4) HCT116 or mES cells were treated 24 hours after seeding. 24 hours post treatment, cells were harvested, lysed in lysis buffer (50 mM Tris-HCl, 150 mM NaCl, 0.5% NP-40, 0.5% Triton X-100) with protease inhibitor (Sigma, P8340), then incubated on ice for 30 minutes, before being centrifuged (18,000 ref, 15 minutes, 4° C.). The supernatant was collected, and protein concentrations quantified via Bradford Assay using Protein Assay Dye Reagent Concentrate (BIO-RAD). For histone extraction, an equal volume of 0.4 N H2SO4 was added to the pellets and the extracts placed at 4° C. overnight. Following overnight incubation, the tubes were centrifuged (18,000 ref, 15 minutes, 4° C.) and then the supernatant (histone extract) collected.
(§5) PageRuler™ Plus Prestained Ladder was used for size standards. After gel electrophoresis at 140V for 75-90 minutes the separated proteins were transferred onto nitrocellulose membrane at 30V for 60 minutes. The membranes were probed with primary antibodies (listed below) for 60-90 minutes. Blots were developed with complimentary IRDye conjugated secondary antibodies and the bands visualised using the Odyssey Infrared Imaging System. Image processing and band intensity quantification was performed using Image Studio Lite.
In general terms: A western blot detects proteins with antibodies after separation by electrophoresis.

The target in test [7] is T2, HDAC2 (Homo sapiens, UniProt Q92769).
T2 construct: endogenous in cells; host or cells: HCT116
Description: HDAC2 degradation in HCT116 cells, quantitative western blot. The format is cell-based. As for the experimental part:
as §3, §4, §5

The target in test [8] is T3, HDAC3 (Homo sapiens, UniProt O15379).
T3 construct: endogenous in cells; host or cells: HCT116
Briefly: HDAC3 degradation in HCT116 cells, quantitative western blot. It counts as cell-based. As for the experimental part: as §3, §4, §5

The test system of test [9] is H3K56ac. Briefly: H3K56ac levels in E14 mouse embryonic stem cells, quantitative western blot. It counts as cell-based. Particulars: E14 mES cells, 24 h; CI-994 40 μM, Panobinostat 30 nM. As for the experimental part: The inventors proceeded to assess their compounds effects on HDAC activity in cells.
To examine the ability of PROTACs 1-4 to reduce HDAC1, 2 and 3 activity in cells they began by measuring H3K56ac using quantitative western blotting (see FIG. 3B).
as §4
as §5, with “Western blots were run on NuPAGE™ 4-12% Bis-Tris gels with 20-30 μg of protein or 10 μL of acid-extracted histone loaded per lane, using NuPAGE™ LDS Sample Buffer (4×). PageRuler™” for “PageRuler™”

The test system of test [10] is H3K9ac. Description: Histone H3 Lys9 acetylation levels in HCT116 cells. The format is cell-based, human. Particulars: HCT116, 24 h, 10 μM. The protocol:
Acetylation levels of Histone H3 Lys9 (H3K9ac), another established residue for HDAC activity, were also determined in HCT116 cells after 24 hours treatment with PROTAC 4.
as §4
Western blots were run on NuPAGE™ 4-12% Bis-Tris gels with 20-30 μg of protein or 10 μL of acid-extracted histone loaded per lane, using NuPAGE™ LDS Sample Buffer (4×). PageRuler™ Plus Prestained Ladder was used for size standards. After gel electrophoresis at 140V for 75-90 minutes the separated proteins were transferred onto nitrocellulose membrane at 30V for 60 minutes. […] Image processing and band intensity quantification was performed using Image Studio Lite.

Test [11] deals with HCT116 colon cancer cell line. Briefly: Cell cycle / cell death by FACS in HCT116 colon cancer cell line. The settings on record: HCT116, 48 hours, 10 μM. It counts as cell-based, human. The protocol:
The inventors then investigated the effect of PROTAC 4 on the cell cycle in the colon cancer HCT116 cell line.
[…] Cells were washed in PBS prior to incubation with […] of propidium iodide and RNase A (10 μg/mL) for 30 min at room temperature in the dark. Samples were analysed using the BD FACSCanto II flow cytometer (BD Biosciences) in the PE A channel with BD FACSDiva software.
For orientation: In flow cytometry, cells or beads pass a laser one at a time.

In test [12] the target is T1, HDAC1. Briefly: HDAC1 degradation in HCT116 cells, quantitative western blot. It counts as cell-based. The settings on record: HCT116, 24 h, 10 nM.
Test [13] has as its target T2, HDAC2. Briefly: HDAC2 degradation in HCT116 cells, quantitative western blot. Particulars: HCT116, 24 h, 10 nM. It counts as cell-based.
Where [14] appears, read: HCT116, 24 h, 1 μM, remaining level.

pIC50: −log10 of the molar value.

T3 sequence (O15379 whole entry): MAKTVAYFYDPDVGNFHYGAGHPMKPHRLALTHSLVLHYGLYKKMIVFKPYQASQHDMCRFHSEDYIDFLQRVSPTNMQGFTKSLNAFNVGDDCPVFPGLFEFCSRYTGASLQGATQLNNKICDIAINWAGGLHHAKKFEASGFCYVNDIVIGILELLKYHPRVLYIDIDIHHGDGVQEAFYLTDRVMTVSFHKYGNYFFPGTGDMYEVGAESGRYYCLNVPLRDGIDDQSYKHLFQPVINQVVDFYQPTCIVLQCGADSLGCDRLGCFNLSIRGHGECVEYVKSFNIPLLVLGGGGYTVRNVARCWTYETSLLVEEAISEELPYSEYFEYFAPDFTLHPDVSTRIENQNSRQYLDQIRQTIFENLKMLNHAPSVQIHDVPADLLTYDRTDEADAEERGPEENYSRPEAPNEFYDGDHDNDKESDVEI
T1 sequence (Q13547 whole entry): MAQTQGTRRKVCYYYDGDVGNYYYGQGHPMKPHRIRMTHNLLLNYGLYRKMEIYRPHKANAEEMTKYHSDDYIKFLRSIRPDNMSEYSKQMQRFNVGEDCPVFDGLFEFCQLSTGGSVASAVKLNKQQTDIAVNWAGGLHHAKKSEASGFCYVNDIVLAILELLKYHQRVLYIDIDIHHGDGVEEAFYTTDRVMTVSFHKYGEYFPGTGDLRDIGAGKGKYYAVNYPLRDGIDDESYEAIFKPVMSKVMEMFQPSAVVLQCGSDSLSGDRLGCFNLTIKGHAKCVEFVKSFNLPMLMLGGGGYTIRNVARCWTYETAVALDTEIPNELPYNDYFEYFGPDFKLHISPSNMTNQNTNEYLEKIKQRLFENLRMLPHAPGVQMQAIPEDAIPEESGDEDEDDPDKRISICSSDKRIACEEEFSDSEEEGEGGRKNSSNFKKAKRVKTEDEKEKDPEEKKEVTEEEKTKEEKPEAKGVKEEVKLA
T2 sequence (Q92769 whole entry): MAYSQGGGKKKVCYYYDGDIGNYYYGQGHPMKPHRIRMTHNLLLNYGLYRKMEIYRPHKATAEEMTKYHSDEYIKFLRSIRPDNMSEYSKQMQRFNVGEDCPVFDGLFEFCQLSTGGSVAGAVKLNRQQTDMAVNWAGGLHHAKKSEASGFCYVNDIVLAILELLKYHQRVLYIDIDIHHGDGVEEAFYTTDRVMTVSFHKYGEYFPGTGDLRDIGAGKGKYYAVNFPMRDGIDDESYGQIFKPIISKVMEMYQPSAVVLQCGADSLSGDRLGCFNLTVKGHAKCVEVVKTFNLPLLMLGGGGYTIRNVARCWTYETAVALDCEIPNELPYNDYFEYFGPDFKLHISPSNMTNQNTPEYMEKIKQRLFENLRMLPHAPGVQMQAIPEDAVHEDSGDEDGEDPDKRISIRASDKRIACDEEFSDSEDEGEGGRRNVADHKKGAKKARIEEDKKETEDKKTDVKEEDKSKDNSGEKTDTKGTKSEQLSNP
Chain of SMRT (O15379 whole entry): as the sequence (O15379 whole entry) above
Chain of SMRT (Q9Y618 389-480 partner limits assumed): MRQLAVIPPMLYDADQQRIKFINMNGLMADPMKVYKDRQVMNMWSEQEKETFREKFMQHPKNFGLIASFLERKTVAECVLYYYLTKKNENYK
Chain of NuRD (Q13547 whole entry): as the sequence (Q13547 whole entry) above
Chain of NuRD (Q13330 162-546 partner limits assumed): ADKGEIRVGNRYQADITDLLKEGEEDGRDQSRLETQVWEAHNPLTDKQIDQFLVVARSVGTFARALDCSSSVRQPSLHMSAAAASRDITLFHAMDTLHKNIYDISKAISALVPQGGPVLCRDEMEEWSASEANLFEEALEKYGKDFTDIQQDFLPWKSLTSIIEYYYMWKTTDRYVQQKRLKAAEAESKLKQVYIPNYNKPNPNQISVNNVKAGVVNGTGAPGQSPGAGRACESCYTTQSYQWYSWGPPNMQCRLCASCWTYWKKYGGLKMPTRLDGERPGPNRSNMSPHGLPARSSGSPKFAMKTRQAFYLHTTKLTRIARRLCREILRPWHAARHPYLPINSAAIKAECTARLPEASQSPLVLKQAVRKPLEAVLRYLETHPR
Chain of NuRD (Q09028 whole entry partner): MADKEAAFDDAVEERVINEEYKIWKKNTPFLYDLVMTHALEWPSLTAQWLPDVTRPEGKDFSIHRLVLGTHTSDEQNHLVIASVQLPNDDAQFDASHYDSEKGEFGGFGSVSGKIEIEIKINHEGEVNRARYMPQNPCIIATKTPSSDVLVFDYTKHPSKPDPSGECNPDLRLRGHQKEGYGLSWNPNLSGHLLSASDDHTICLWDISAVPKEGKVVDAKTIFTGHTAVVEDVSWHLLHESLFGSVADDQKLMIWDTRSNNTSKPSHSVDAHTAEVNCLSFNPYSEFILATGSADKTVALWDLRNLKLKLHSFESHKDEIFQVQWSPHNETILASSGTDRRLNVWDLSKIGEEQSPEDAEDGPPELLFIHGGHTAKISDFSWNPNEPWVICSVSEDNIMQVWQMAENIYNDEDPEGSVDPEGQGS
Chain of CoREST (Q13547 whole entry, other chains not shown): as the sequence (Q13547 whole entry) above
Chain of CoREST (Q9UKL0 86-485 partner limits assumed, other chains not shown): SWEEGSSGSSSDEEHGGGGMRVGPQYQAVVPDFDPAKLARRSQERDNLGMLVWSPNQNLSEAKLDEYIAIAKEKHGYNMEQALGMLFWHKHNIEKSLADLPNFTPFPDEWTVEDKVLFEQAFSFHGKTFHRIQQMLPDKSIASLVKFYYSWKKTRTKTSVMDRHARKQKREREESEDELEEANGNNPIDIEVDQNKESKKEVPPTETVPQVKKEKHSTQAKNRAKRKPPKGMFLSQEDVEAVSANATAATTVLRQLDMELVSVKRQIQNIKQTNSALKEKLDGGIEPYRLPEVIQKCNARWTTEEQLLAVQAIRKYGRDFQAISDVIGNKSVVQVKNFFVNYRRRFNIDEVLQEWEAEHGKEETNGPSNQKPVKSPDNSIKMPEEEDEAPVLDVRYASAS
Chain of LSD1-CoREST-HDAC1 complex (Q13547 whole entry, other chains not shown): as the sequence (Q13547 whole entry) above
Chain of LSD1-CoREST-HDAC1 complex (Q9UKL0 86-485 partner limits assumed, other chains not shown): as the sequence (Q9UKL0 86-485 partner limits assumed, other chains not shown) above
Chain of MiDAC (Q13547 whole entry): as the sequence (Q13547 whole entry) above
Chain of MiDAC (Q6PJG2 628-887 partner limits assumed): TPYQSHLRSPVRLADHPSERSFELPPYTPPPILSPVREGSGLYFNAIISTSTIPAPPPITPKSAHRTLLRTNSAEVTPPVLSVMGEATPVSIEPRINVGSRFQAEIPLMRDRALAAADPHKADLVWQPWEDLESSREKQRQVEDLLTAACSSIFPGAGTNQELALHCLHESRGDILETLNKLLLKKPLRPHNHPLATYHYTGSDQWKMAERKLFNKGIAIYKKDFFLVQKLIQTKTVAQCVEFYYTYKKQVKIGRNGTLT
Chain of MiDAC (Q9H147 whole entry partner): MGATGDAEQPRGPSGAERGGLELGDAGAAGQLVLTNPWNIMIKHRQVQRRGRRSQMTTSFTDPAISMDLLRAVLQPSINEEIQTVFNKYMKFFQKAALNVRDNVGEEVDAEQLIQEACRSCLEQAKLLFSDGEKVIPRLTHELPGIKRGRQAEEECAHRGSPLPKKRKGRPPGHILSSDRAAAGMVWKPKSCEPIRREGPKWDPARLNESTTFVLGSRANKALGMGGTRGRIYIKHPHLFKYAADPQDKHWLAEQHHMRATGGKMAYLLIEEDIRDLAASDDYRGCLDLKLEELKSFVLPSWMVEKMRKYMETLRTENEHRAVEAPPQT

Regarding `Cc1ncsc1-c1ccc(CNC(=O)[C@@H]2C[C@@H](O)CN2C(=O)[C@@H](NC(=O)CCCCCCCCCCC(=O)Nc2ccc(C(=O)Nc3ccccc3N)cc2)C(C)(C)C)cc1` [PROTAC4, N1-(4-((2-aminophenyl)carbamoyl)phenyl)-N12-((S)-1-((2S,4R)-4-hydroxy-2-((4-(4-methylthiazol-5-yl)benzyl)carbamoyl)pyrrolidin-1-yl)-3,3-dimethyl-1-oxobutan-2-yl)dodecanediamide], the pIC50 – broadly, −log10 of the IC50, conventionally taken in molar units – in [1] is 4.77; in test [2] it was 6.40; in [3], 6.38; in test [4], 6.47; in [5], 6.38. Moreover, the HDAC1 degradation entry in test [6] (HCT116, 24 h, 1 μM) was “approximately 50%”; in test [6] (HCT116, 24 h, 10 μM), “near complete degradation”. Besides, the “HDAC1 level (DMSO control = 100%)” value in [6] (setting [14]) was 40-48%. The Dmax came out at 85% in test [6] (HCT-116, 24 h, HCT116, screened at 0.1, 1 and 10 μM, maximum degradation irrespective of concentration, read-out: HDAC1 Degrader (% Degradation)); 76% in test [7] (HCT-116, 24 h, HCT116, screened at 0.1, 1 and 10 μM, maximum degradation irrespective of concentration, read-out: HDAC 2 Degrader (% Degradation)); 63% in test [8] (HCT-116, 24 h, HCT116, screened at 0.1, 1 and 10 μM, maximum degradation irrespective of concentration, read-out: HDAC 3 degrader (% Degradation)). In addition, the HDAC2 degradation entry in [7] (HCT116, 24 h, 1 μM) is reported as “approximately 50%”; in [7] (HCT116, 24 h, 10 μM), “near complete degradation”. The “HDAC2 level (DMSO control = 100%)” value in test [7] (setting [14]) is given as 40-48%. Besides, the HDAC3 degradation result in test [8] (HCT116, 24 h, 1 μM) is given as “approximately 50%”. Also, in test [8] (setting [14]), the “HDAC3 level (DMSO control = 100%)” value is on record as 40-48%. Also, the HDAC3 levels result in test [8] (HCT116, 24 h, 10 μM) is recorded as “decreased”. Besides, the H3K56 acetylation level result in [9] is “increase in acetylation to similar levels”. Moreover, the “H3K9 acetylation levels compared to DMSO control” value in test [10] is given as “highly elevated”. Moreover, in test [11], the cell death entry is “significant cell death”. In addition, in test [12], the HDAC1 levels result was “not recovered”. Further, in test [13], the HDAC2 levels entry was “not recovered”.
